Values belong to the molecule of their own block, whether it stands above or below them. Where no end group is shown, it is not given here. 5‑FAM = 5-carboxyfluorescein
What was measured:
[1] = molecular target: T1, GST-PHD1 (PHD1 finger of KDM5A) (Homo sapiens, UniProt P29375); experiment: Competitive-binding fluorescence polarization (FP) assay, displacement of 5-FAM H3K4me0 10-mer from GST-PHD1; conditions: for inhibition at 1000 µM / %I at 1 mM: 1 mM compound, quadruplicate (n = 1 for R1 = OBn; n = 2 for R1 = Me); for inhibition at 1000 µM: read-out: %I at 1 mM; for IC50: HTS assay conditions, read-out: approximate IC50
T1 construct: GST-PHD1(S287-E344); made in house; host or cells: E. coli BL21 (DE3), pET41a
T1 sequence (P29375 287-344): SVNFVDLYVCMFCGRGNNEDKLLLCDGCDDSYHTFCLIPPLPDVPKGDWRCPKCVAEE
From the text: Fluorescence polarization (FP) has been widely used as a biophysical method to detect and quantify disruptions in protein–protein and protein–peptide interactions.[33,34] It served as the primary assay in the high-throughput screening (HTS) campaign to identify ligands for the PHD1 finger (Fig. 1b). The FP assay includes a GST-labeled […] construct and its H3K4me0 10-mer peptide substrate (Fig. 1c and d).[21,22] […]
Fig. 2 Dose-dependent inhibition of GST-PHD1 − H3 tail interaction by screen hits obtained from HTS of the NCI collection. […] DMSO is used as the negative (−) control (0% inhibition).
Fluorescence polarization high-throughput screening
To test the activity of purified GST-PHD1(S287-E344), direct-binding and competitive-binding fluorescence polarization (FP) were done, as previously described.3,4 For screening, GST-PHD1(S287-E344) was diluted in buffer (50 mM HEPES, pH 7.5, 50 mM KCl, 0.01% Tween-20, 1 mM TCEP) with 20 nM 5-carboxyfluorescein-labeled H3 10-mer peptide and with or without 0.1% bovine gamma globulin (BGG). This was treated as the assay buffer (with 0.1% BGG) and also as the negative control. For the positive control, 120 μM unlabeled H3K4 10-mer peptide was added to the assay buffer. The assay buffer was dispensed using the EL406 Biotek liquid dispenser onto black, round-bottom low volumes 384-microwell plates (Corning 4514) to a final volume of 10 μL per well. DMSO (10 nL or 50 nL) or screening compounds at 10 nL (ChemBridge Premium Diversity collection at 10 μM final) or 50 nL (ML fragments and NCI libraries at 50 μM final) was added to plates containing the assay buffer using the BioMek liquid handler/dispenser. The final DMSO in the samples was either 0.1% or 0.5%. Fluorescence polarization measurements were performed directly and after 45 minutes of incubation at room temperature using a Perkin Elmer Envision and XCite 2105 multimode microplate reader equipped with a stacker. Excitation light was delivered with a xenon flash lamp at 480/30 nm (BW) and emission was collected after passing through an emission filter (535/25 nm). For fluorescence polarization experiments, two 535/40 nm filters (S, P) and dual dichroic D505/D535 nm mirrors were used.
For FP-based assay optimization, the assay signal dynamic range was evaluated using the negative and positive control buffers with varying amounts of GST-PHD1 (0.5, 1, 1.5, or 2 μM) in the presence or absence of 0.1% BGG. For each condition, buffer was dispensed into 3 columns of a 384-well plate (48 wells each) using the BioMek liquid dispenser and the FP signal was recorded. The Z′ value reports on the assay robustness by reflecting both the dynamic range and the data variation associated with assay measurements.5 The Z′ value is given by the following equation: […]
where σ represents the standard deviation, PC represents the positive control, NC represents the negative control, and μ represents the mean value of the FP signal.
Screen results were analyzed using the UCSF SMDC web application called HiTS […]
(http://smdc.ucsf.edu/hits/). […]
equal to 3 standard deviations of the mean percent inhibition values, where the negative control is set to 0% inhibition and the positive control is set to 100% inhibition. Cheminformatics analysis on the screen hits was done using DataWarrior, an open-source program for data visualization and analysis with chemical intelligence.6 The Tanimoto coefficient was used to gauge the similarity and diversity of screen hits and cluster any compounds with greater than 75% similarity.
Screen hits were repurchased when available. Structurally similar derivatives were purchased when exact compounds were not available for purchase. Compound purity was confirmed by LCMS. All compounds were dissolved in DMSO-d6 to a final concentration of 40 mM unless otherwise specified. All putative screen hits were confirmed in dose-response using the competitive binding fluorescence polarization […]
assay. […]

15N-labeled PHD1 (KDM5A) = molecular target: T2, 15N-labeled PHD1 (KDM5A) (Homo sapiens, UniProt P29375); experiment: 2D 1H-15N HSQC NMR binding assay; conditions: for perturbation of some residues: most perturbed residues
T2 construct: PHD1(S287-E344) construct; GST (N, cleaved yes); made in house; host or cells: E. coli BL21 (DE3), M9 minimal media with 15N ammonium chloride
T2 sequence (P29375 287-344): T1 sequence (P29375 287-344)
Description: The binding of the ChemBridge screen hits to PHD1 was further evaluated using 2D ^1H–^15N HSQC NMR spectroscopy. This direct binding method allowed us to monitor binding by observing any ligand-induced changes in the previously assigned ^1H–^15N PHD1 amino acid resonances.[12] The HSQC spectra of 50 μM ^15N-labeled PHD1 with DMSO were overlaid with the spectra of the ^15N-labeled PHD1 incubated with 1 mM compound. […] Compound 715 958 was insoluble in the NMR buffer at this concentration and was not evaluated. […]
Nuclear magnetic resonance (NMR) binding assays
A PHD1(S287-E344) construct was used in NMR studies, as previously described.4 Briefly, the GST-PHD1 fusion construct was expressed in M9 minimal media containing 15N ammonium chloride. The labeled GST-PHD1 was purified and the GST tag was cleaved as described in the Expression of GST-PHD1(S287-E344) and GST tag removal section. For 2D 1H, 15N Fast HSQC (FHSQC) binding experiments, 50 μM 15N-labeled PHD1 was used and spectra were measured after the addition of DMSO-d6 or compound at 1 mM in DMSO-d6 for single concentration experiments. The NMR samples were prepared in 50 mM HEPES pH 7.5, 150 mM KCl buffer with 5 mM BME, 100 μM ZnCl2, and 10% D2O at a final concentration of 2.4% DMSO-d6. The HSQC spectra were collected on a 600 MHz Bruker Avance NEO spectrometer equipped with an actively shielded Z-gradient […] TCI cryoprobe using programs from the pulse program library (TopSpin 4.0.6). FHSQC acquisition parameters were: NS = 8, acquisition time = 0.106 s 1H, 0.060 s 15N. All experiments were carried out at 298 K (calibrated with 4% v/v MeOH […]
For 2D 1H, 15N FHSQC titration experiments, 50 μM 15N-labeled PHD1 was incubated with 0, 0.5, 1, 2, or 4 mM B2 sample with a final concentration of 2.9% DMSO-d6 for all samples. The NMR samples were prepared in 50 mM HEPES pH 7.5, 150 mM KCl buffer with 5 mM BME, 100 μM ZnCl2, and 5% D2O. The 2D 15N FHSQC spectra for the titration series were recorded at 298 K on a Bruker 800 MHz AVANCE-I spectrometer equipped with an actively shielded Z-gradient TCI cryoprobe using programs from the pulse program library (TopSpin 4.0.8). FHSQC acquisition parameters were: NS = 8, acquisition time = 0.082 s 1H, 0.045s 15N. The analysis of the chemical shift perturbation of the amide cross-peaks during the titration with the ligand was performed using CCPNMR Analysis software and use PHD1 with 2.9% DMSO-d6 as the reference.7 Apo PHD1 backbone assignments were imported from the BMRB (entry 30808).4 The chemical shift perturbations for all the NMR experiments were calculated in CCPNMR v3.2, which uses the following equation:
∆ chemical shift = ∆H2 + 0.15(∆N)2

[2] = molecular target: GST-labeled PHD1(S283-E344) construct of KDM5A; experiment: fluorescence polarisation; direct binding of C-terminal 5-FAM H3 10-mer peptide to GST-PHD1; triplicate measurements
[3] = molecular target: GST-labeled PHD1(S283-E344) construct of KDM5A (two Zn(II) ions bound (PHD zinc finger)); experiment: fluorescence polarisation; competitive displacement of 5-FAM H3 10-mer (10 nM) from GST-PHD1 (2 μM) by unlabeled H3 10-mer peptide; triplicate measurements; conditions: both partners purified

inhibition at 1000 µM [1]: 30%
Molecule: CC(=O)c1c(C)oc2ccc(N(C(C)=O)S(=O)(=O)c3ccc(C(=O)O)cc3)cc12 [7 917 645]

average shifts (CSP on PHD1) (15N-labeled PHD1 (KDM5A); 50 μM 15N PHD1, 1 mM compound): 0.0025–0.0033 ppm | Δδ of residue Cys322 (15N-labeled PHD1 (KDM5A); 50 μM 15N PHD1, 1 mM compound): 0.009 ppm | perturbation of some residues (15N-labeled PHD1 (KDM5A); 50 μM 15N PHD1, 1 mM compound): greater than 0.008 ppm
Molecule: CSc1nnc2c(n1)OC(c1ccncc1)Nc1ccccc1-2 (stereo not shown) [516 969]

average shifts (CSP on PHD1) (15N-labeled PHD1 (KDM5A); 50 μM 15N PHD1, 1 mM compound): ≤ 0.002 ppm | Δδ of residue N304 (15N-labeled PHD1 (KDM5A); 50 μM 15N PHD1, 1 mM compound): > 0.01 ppm
Molecule: CCc1nnc(NS(=O)(=O)c2ccc(NC(=O)c3ccc(OC)c(OC)c3)cc2)s1 [988 385]

average shifts (CSP on PHD1) (15N-labeled PHD1 (KDM5A); 50 μM 15N PHD1, 1 mM compound): 0.0025–0.0033 ppm | perturbation of some residues (15N-labeled PHD1 (KDM5A); 50 μM 15N PHD1, 1 mM compound): greater than 0.008 ppm | inhibition at 1000 µM [1]: 45% | IC50 ([1]; FP concentration-response): > 1500 µM
Molecule: Cc1oc2ccc(NS(=O)(=O)c3ccc(C(=O)O)cc3)cc2c1C(=O)OCc1ccccc1 [990 099]

average shifts (CSP on PHD1) (15N-labeled PHD1 (KDM5A); 50 μM 15N PHD1, 1 mM compound): ≤ 0.002 ppm
Molecule: O=C(C1CC1)N1CCc2sc(S(=O)(=O)Nc3cccc(Cl)c3F)cc2C1 [990 856]

average shifts (CSP on PHD1) (15N-labeled PHD1 (KDM5A); 50 μM 15N PHD1, 1 mM compound): ≤ 0.002 ppm
Molecule: Cc1c(CCC(=O)N2CCCC2C(=O)O)c(=O)oc2c(C)c(O)ccc12 (stereo not shown) [991 830]

inhibition at 1000 µM [1]: 6% | potency relative to parent hit ([1]; FP concentration-response, compared with 516 969 or 990 099): drastically reduced potency
Molecule: Cc1oc2ccc(NS(=O)(=O)c3ccccc3)cc2c1C(=O)OCc1ccccc1 [Compound 8018-7366]

%I at 1 mM [1]: 38% | inhibition at 1000 µM [1]: 38%
Molecule: CC(=O)c1c(C)oc2ccc(NS(=O)(=O)c3ccc(C(=O)O)cc3)cc12 [Compound B1, 4-(N-(3-acetyl-2-methylbenzofuran-5-yl)sulfamoyl)benzoic acid]

chemical shift perturbations on PHD1 in titration (15N-labeled PHD1 (KDM5A); B2 at 0.5, 1, 2 and 4 mM with 50 μM 15N PHD1): chemical shift perturbations are small | %I at 1 mM [1]: 45% | inhibition at 1000 µM [1]: 45% | IC50 ([1]; FP concentration-response): ~1300 µM
Molecule: CC(=O)c1c(C)oc2ccc(NS(=O)(=O)c3cccc(C(=O)O)c3)cc12 [Compound B2, 3-(N-(3-acetyl-2-methylbenzofuran-5-yl)sulfamoyl)benzoic acid]

inhibition at 1000 µM [1]: 12%
Molecule: CC(=O)c1c(C)oc2ccc(NS(=O)(=O)c3ccc(C(N)=O)cc3)cc12 [Compound B3, 4-(N-(3-acetyl-2-methylbenzofuran-5-yl)sulfamoyl)benzamide]

inhibition at 1000 µM [1]: 9%
Molecule: CC(=O)c1c(C)oc2ccc(NS(=O)(=O)c3cccc(C(N)=O)c3)cc12 [Compound B4, 3-(N-(3-acetyl-2-methylbenzofuran-5-yl)sulfamoyl)benzamide]

inhibition at 1000 µM [1]: 11%
Molecule: CCOC(=O)c1ccc(S(=O)(=O)Nc2ccc3oc(C)c(C(C)=O)c3c2)cc1 [Compound B5, ethyl 4-(N-(3-acetyl-2-methylbenzofuran-5-yl)sulfamoyl)benzoate]

inhibition at 1000 µM [1]: 4%
Molecule: COC(=O)c1cccc(S(=O)(=O)Nc2ccc3oc(C)c(C(C)=O)c3c2)c1 [Compound B6, methyl 3-(N-(3-acetyl-2-methylbenzofuran-5-yl)sulfamoyl)benzoate]

inhibition at 1000 µM [1]: 13%
Molecule: CC(=O)c1c(C)oc2ccc(NS(=O)(=O)c3cccc(Cl)c3)cc12 [Compound B7, N-(3-acetyl-2-methylbenzofuran-5-yl)-3-chlorobenzenesulfonamide]

Ki ([1]; displacement of 5-FAM H3 10-mer (10 nM) from GST-PHD1 (2 μM)): 0.95 ± 0.14 µM
Molecule: C[C@H](N)C(=O)N[C@@H](CCCNC(=N)N)C(=O)N[C@H](C(=O)N[C@@H](CCCCN)C(=O)N[C@@H](CCC(N)=O)C(=O)N[C@H](C(=O)N[C@@H](C)C(=O)N[C@@H](CCCNC(=N)N)C(=O)N[C@@H](CCCCN)C(=O)N[C@@H](CO)C(=O)O)[C@@H](C)O)[C@@H](C)O [unlabeled H3 peptide, reference compound]

Kd [2]: 0.95 µM
Molecule: ARTKQTARKS-{5‑FAM} [C-terminal 5-FAM H3 10-mer peptide, P68431 2-11]

Ki [3]: 0.95 ± 0.14 µM
B1: unlabeled H3 10-mer peptide (peptide, UniProt P68431 2-11, looked up)
peptide: ARTKQTARKS
notes: histone H3 N-terminal tail 10-mer with unmodified K4 (H3K4me0); also called unlabeled H3K4me0 10-mer; H3K4me0 10-mer peptide
